Data published in patent US5169838A, “Benzopyranone-β-D-thioxylosides and their use in therapy” (Fournier Industrie et Sante, priority 1989, dated 1992).

Assay: venous thrombosis (venous stasis under hypercoagulation with activated factor X, Wessler technique)
Type: in vivo, male Wistar rats
Conditions: po, administered orally, rat, thrombosis induced 4 hours after treatment, thrombus weighed
Procedure: The study is performed on unfasted male Wistar rats weighing 250 to 280 g, divided up into groups of 10 animals each. The test products are administered orally as a suspension in PEG 400. A thrombosis is induced 4 hours after this treatment and the thrombus formed is removed and weighed.

| SMILES | inhibition in vivo at 3 mg/kg [%] |
| --- | --- |
| CC(=O)O[C@@H]1[C@@H](OC(C)=O)[C@H](OC(C)=O)CS[C@H]1Oc1ccc2c(C(F)(F)F)cc(=O)oc2c1 [Example 3a, 4-trifluoromethyl-2-oxo-2H-1-benzopyran-7-yl 2,3,4-tri-O-acetyl-5-thio-β-D-xylopyranoside] | 47 |
| CCCc1cc(=O)oc2cc(S[C@@H]3SC[C@@H](OC(C)=O)[C@H](OC(C)=O)[C@H]3OC(C)=O)ccc12 [Example 14a, 2-oxo-4-propyl-2H-1-benzopyran-7-yl 2,3,4-tri-O-acetyl-1,5-dithio-β-D-xylopyranoside] | 25 |
| Cc1cc(=O)oc2ccc(O[C@@H]3SC[C@@H](O)[C@H](O)[C@H]3O)cc12 [Example 2, 4-methyl-2-oxo-2H-1-benzopyran-6-yl 5-thio-β-D-xylopyranoside] | 81 |
| CCc1cc(=O)oc2cc(O[C@@H]3SC[C@@H](O)[C@H](O)[C@H]3O)ccc12 [Example 1, 4-ethyl-2-oxo-2H-1-benzopyran-7-yl 5-thio-β-D-xylopyranoside] | 87 |
| CC(=O)O[C@@H]1[C@@H](OC(C)=O)[C@H](OC(C)=O)CS[C@H]1Oc1cccc2c(C)cc(=O)oc12 [Example 4a, 4-methyl-2-oxo-2H-1-benzopyran-8-yl 2,3,4-tri-O-acetyl-5-thio-β-D-xylopyranoside] | 51 |
| CC(=O)O[C@@H]1[C@@H](OC(C)=O)[C@H](OC(C)=O)CS[C@H]1Oc1ccc2c(=O)cc(C)oc2c1 [Example 20a, 2-methyl-4-oxo-4H-1-benzopyran-7-yl 2,3,4-tri-O-acetyl-5-thio-β-D-xylopyranoside] | 20 |
| Cc1cc(=O)oc2cc(O[C@@H]3SC[C@@H](O)[C@H](O)[C@H]3O)ccc12 [Example 16, 4-methyl-2-oxo-2H-1-benzopyran-7-yl 5-thio-β-D-xylopyranoside] | 63 |
| Cc1c(Cl)c(=O)oc2cc(O[C@@H]3SC[C@@H](O)[C@H](O)[C@H]3O)ccc12 [Example 17, 3-chloro-4-methyl-2-oxo-2H-1-benzopyran-7-yl 5-thio-β-D-xylopyranoside] | 64 |
| Cc1cc(=O)c2ccc(O[C@@H]3SC[C@@H](O)[C@H](O)[C@H]3O)cc2o1 [Example 20, 2-methyl-4-oxo-4H-1-benzopyran-7-yl 5-thio-β-D-xylopyranoside] | 53 |
| CC(=O)O[C@@H]1[C@@H](OC(C)=O)[C@H](Sc2ccc3c(C)cc(=O)oc3c2)SC[C@H]1OC(C)=O [Example 8a, 4-methyl-2-oxo-2H-1-benzopyran-7-yl 2,3,4-tri-O-acetyl-1,5-dithio-β-D-xylopyranoside] | 65 |
| CCc1cc(=O)oc2cc(O[C@@H]3SC[C@@H](OC(C)=O)[C@H](OC(C)=O)[C@H]3OC(C)=O)ccc12 [Example 1a, 4-ethyl-2-oxo-2H-1-benzopyran-7-yl 2,3,4-tri-O-acetyl-5-thio-β-D-xylopyranoside] | 65 |
| CC(=O)O[C@@H]1[C@@H](OC(C)=O)[C@H](OC(C)=O)CS[C@H]1Oc1ccc2c(=O)c(C)c(C)oc2c1 [Example 22a, 2,3-dimethyl-4-oxo-4H-1-benzopyran-7-yl 2,3,4-tri-O-acetyl-5-thio-β-D-xylopyranoside] | 66 |
| CC(=O)O[C@@H]1[C@@H](OC(C)=O)[C@H](Sc2ccc3c(C)c(Cl)c(=O)oc3c2)SC[C@H]1OC(C)=O [Example 12a, 3-chloro-4-methyl-2-oxo-2H-1-benzopyran-7-yl 2,3,4-tri-O-acetyl-1,5-dithio-β-D-xylopyranoside] | 32 |
| Cc1oc2cc(S[C@@H]3SC[C@@H](O)[C@H](O)[C@H]3O)ccc2c(=O)c1C [Example 26, 2,3-dimethyl-4-oxo-4H-1-benzopyran-7-yl 1,5-dithio-β-D-xylopyranoside] | 27 |
| Cc1oc2cc(O[C@@H]3SC[C@@H](O)[C@H](O)[C@H]3O)ccc2c(=O)c1C [Example 22, 2,3-dimethyl-4-oxo-4H-1-benzopyran-7-yl 5-thio-β-D-xylopyranoside] | 36 |
| CC(=O)O[C@@H]1[C@@H](OC(C)=O)[C@H](OC(C)=O)CS[C@H]1Oc1ccc2oc(=O)cc(C)c2c1 [Example 2a, 4-methyl-2-oxo-2H-1-benzopyran-6-yl 2,3,4-tri-O-acetyl-5-thio-β-D-xylopyranoside] | 53 |
| O=c1oc2cc(S[C@@H]3SC[C@@H](O)[C@H](O)[C@H]3O)ccc2c2c1CCCC2 [Example 15, 7,8,9,10-tetrahydro-6-oxo-6H-dibenzo[b,d]pyran-3-yl 1,5-dithio-β-D-xylopyranoside] | 31 |
| O=c1cc(C(F)(F)F)c2ccc(S[C@@H]3SC[C@@H](O)[C@H](O)[C@H]3O)cc2o1 [Example 11, 4-trifluoromethyl-2-oxo-2H-1-benzopyran-7-yl 1,5-dithio-β-D-xylopyranoside] | 36 |
| Cc1oc2cc(O[C@@H]3SC[C@@H](O)[C@H](O)[C@H]3O)ccc2c(=O)c1Br [Example 28, 3-bromo-2-methyl-4-oxo-4H-1-benzopyran-7-yl 5-thio-β-D-xylopyranoside] | 49 |

| SMILES | inhibition in vivo at 3 mg/kg [%] |
| --- | --- |
| CCCc1cc(=O)oc2cc(O[C@@H]3SC[C@@H](O)[C@H](O)[C@H]3O)ccc12 [Example 5, 2-oxo-4-propyl-2H-1-benzopyran-7-yl 5-thio-β-D-xylopyranoside] | 26 |
| CC(C)c1cc(=O)oc2cc(O[C@@H]3SC[C@@H](O)[C@H](O)[C@H]3O)ccc12 [Example 19, 4-(1-methylethyl)-2-oxo-2H-1-benzopyran-7-yl 5-thio-β-D-xylopyranoside] | 36 |
| CCc1cc(=O)c2ccc(S[C@@H]3SC[C@@H](OC(C)=O)[C@H](OC(C)=O)[C@H]3OC(C)=O)cc2o1 [Example 27a, 2-ethyl-4-oxo-4H-1-benzopyran-7-yl 2,3,4-tri-O-acetyl-1,5-dithio-β-D-xylopyranoside] | 23 |
| CCc1cc(=O)c2ccc(S[C@@H]3SC[C@@H](O)[C@H](O)[C@H]3O)cc2o1 [Example 27, 2-ethyl-4-oxo-4H-1-benzopyran-7-yl 1,5-dithio-β-D-xylopyranoside] | 26 |
| CCc1cc(=O)oc2cc(S[C@@H]3SC[C@@H](O)[C@H](O)[C@H]3O)ccc12 [Example 13, 4-ethyl-2-oxo-2H-1-benzopyran-7-yl 1,5-dithio-β-D-xylopyranoside] | 54 |
| Cc1cc(=O)oc2cccc(O[C@@H]3SC[C@@H](O)[C@H](O)[C@H]3O)c12 [Example 6, 4-methyl-2-oxo-2H-1-benzopyran-5-yl 5-thio-β-D-xylopyranoside] | 42 |
| CC(=O)O[C@@H]1[C@@H](OC(C)=O)[C@H](OC(C)=O)CS[C@H]1Oc1ccc2c(C)c(Cl)c(=O)oc2c1 [Example 17a, 3-chloro-4-methyl-2-oxo-2H-1-benzopyran-7-yl 2,3,4-tri-O-acetyl-5-thio-β-D-xylopyranoside] | 67 |
| CC(=O)O[C@@H]1[C@@H](OC(C)=O)[C@H](OC(C)=O)CS[C@H]1Oc1ccc2c(=O)c(Br)c(C)oc2c1 [Example 28a, 3-bromo-2-methyl-4-oxo-4H-1-benzopyran-7-yl 2,3,4-tri-O-acetyl-5-thio-β-D-xylopyranoside] | 25 |
| Cc1cc(=O)oc2c(O[C@@H]3SC[C@@H](O)[C@H](O)[C@H]3O)cccc12 [Example 4, 4-methyl-2-oxo-2H-1-benzopyran-8-yl 5-thio-β-D-xylopyranoside] | 52 |
| Cc1cc(=O)oc2cccc(S[C@@H]3SC[C@@H](O)[C@H](O)[C@H]3O)c12 [Example 7, 4-methyl-2-oxo-2H-1-benzopyran-5-yl 1,5-dithio-β-D-xylopyranoside] | 38 |
| CCc1cc(=O)c2ccc(O[C@@H]3SC[C@@H](O)[C@H](O)[C@H]3O)cc2o1 [Example 21, 2-ethyl-4-oxo-4H-1-benzopyran-7-yl 5-thio-β-D-xylopyranoside] | 70 |
| Cc1c(-c2ccccc2)c(=O)oc2cc(O[C@@H]3SC[C@@H](O)[C@H](O)[C@H]3O)ccc12 [Example 18, 4-methyl-2-oxo-3-phenyl-2H-1-benzopyran-7-yl 5-thio-β-D-xylopyranoside] | 43 |
| CC(=O)O[C@@H]1[C@@H](OC(C)=O)[C@H](Sc2ccc3c4c(c(=O)oc3c2)CCCC4)SC[C@H]1OC(C)=O [Example 15a, 7,8,9,10-tetrahydro-6-oxo-6H-dibenzo[b,d]pyran-3-yl 2,3,4-tri-O-acetyl-1,5-dithio-β-D-xylopyranoside] | 23 |
| Cc1cc(=O)oc2c(S[C@@H]3SC[C@@H](O)[C@H](O)[C@H]3O)cccc12 [Example 9, 4-methyl-2-oxo-2H-1-benzopyran-8-yl 1,5-dithio-β-D-xylopyranoside] | 31 |
| CC(=O)O[C@@H]1[C@@H](OC(C)=O)[C@H](Sc2ccc3oc(=O)cc(C)c3c2)SC[C@H]1OC(C)=O [Example 10a, 4-methyl-2-oxo-2H-1-benzopyran-6-yl 2,3,4-tri-O-acetyl-1,5-dithio-β-D-xylopyranoside] | 32 |
| CCc1cc(=O)c2ccc(O[C@@H]3SC[C@@H](OC(C)=O)[C@H](OC(C)=O)[C@H]3OC(C)=O)cc2o1 [Example 21a, 2-ethyl-4-oxo-4H-1-benzopyran-7-yl 2,3,4-tri-O-acetyl-5-thio-β-D-xylopyranoside] | 42 |
| CCCc1cc(=O)oc2cc(S[C@@H]3SC[C@@H](O)[C@H](O)[C@H]3O)ccc12 [Example 14, 2-oxo-4-propyl-2H-1-benzopyran-7-yl 1,5-dithio-β-D-xylopyranoside] | 43 |
| CCc1cc(=O)oc2cc(S[C@@H]3SC[C@@H](OC(C)=O)[C@H](OC(C)=O)[C@H]3OC(C)=O)ccc12 [Example 13a, 4-ethyl-2-oxo-2H-1-benzopyran-7-yl 2,3,4-tri-O-acetyl-1,5-dithio-β-D-xylopyranoside] | 58 |
